We go through one compound from article PMC8524809 (Molecular Therapy, 2021).

Data set [1] can be described thus: in vitro. The conditions noted are these: human.
For data set [2] the following is noted: cited from earlier work.

Take `CC(C)(O)c1ccccc1CC[C@@H](SCC1(CC(=O)O)CC1)c1cccc(/C=C/c2ccc3ccc(Cl)cc3n2)c1` [montelukast]: the viability in data set [1] was 86 to 90%. Further, in data set [2] (all doses 10 mg/day to 200 mg/day, ref 23 (Altman et al.)), the “Side effects / tolerability” value is reported as “no significant clinical or laboratory side effects”. The Toxicity tolerance result in data set [2] (high doses (i.e., 200 mg/day)) is listed as “toxicity tolerance is high”.
